Drawing on patent US9433609B2, “Benzimidazole-imidazole derivatives” (Janssen Sciences Ireland UC, priority 2009, dated 2016), this text covers CC50 and EC50 for one compound.

Series [1] is described as follows: Counterscreen MT4-LTR-Luc. The class given is cell-based. The following applies: human. The text has this: Counterscreen cell lines included a Huh-7 hepatoma cell line containing a human cytomegalovirus major immediate-early promoter-Luc construct (Huh7-CMV-Luc) and an MT4 T-cell line containing a long terminal repeat-Luc reporter (MT4-LTR-Luc).
For series [2], the system named is HCV genotype 1b replicon with NS5A R30H. Briefly: Transient HCV 1b replicon assay, NS5A mutant R30H. The class given is cell-based. The following applies: Hepatitis C virus, read-out: EC50 R30H. The text has this:
In a transient set-up, a Huh-7 lunet hepatoma cell line was transiently transfected with an autonomously replicating RNA encoding a bi-cistronic expression construct. This construct comprises a firefly luciferase reporter gene preceding the NS3-NS5B subgenomic region of HCV (genotype 1a H77 or 1b Con1). Translation of the HCV subgenomic region is mediated by an internal ribosome entry site of encephalomyocarditis virus. The construct is furthermore flanked by 5′ and 3′ untranslated regions of HCV (genotype 1a H77 or 1b Con 1, respectively), which allow for replication of the RNA.
In addition to the wild-type constructs, site-directed mutations were introduced into the transient HCV genotype 1b replicon in the gene encoding for the non-structural protein 5A (NS5A). More precisely, amino acid residues 28, 30, 31 and 93 in NS5A were independently altered.
Cells were plated in 384 well plates in the presence of test and control compounds, which were added in various concentrations. Following an incubation of two days, replication of the HCV subgenomic replicon RNA was measured by assaying luciferase activity (using standard luciferase assay substrates and reagents and a Perkin Elmer ViewLux™ ultraHTS microplate imager). […] The inhibitory activity of the compound was monitored, enabling a dose-response curve for each test compound. […]
For orientation: A replicon is a self-replicating genome or part of one, used to study replication in cells.

Usually CC50 stands for the concentration giving 50% cytotoxicity. For orientation: EC50 means the concentration needed to bring the measured effect to its halfway point.

The structures appear in SMILES notation.

In series [1], `COC(=O)N[C@H](C(=O)N1CCC[C@H]1c1ncc(-c2ccc(-c3ccc4nc([C@@H]5CCCN5C(=O)[C@@H](NC(=O)OC)C(C)C)[nH]c4c3)cc2)[nH]1)C(C)C` [Compound 1] returned a CC50 of over 984 nM. Also, the EC50 in series [2] came to 0.6 nM.
